What was measured:
[1] = tested on: PBMCs of COVID-19 convalescent donors; assay: Proliferation assay with CFSE in the presence of dexamethasone; assay type: cell-based, human; details: dexamethasone 10-7-10-6 M
Experimental: Around 2 million cells where incubated in a P24 plaque in 1 ml of supplemented medium with 1.5% v/v PHA (Phytohemagglutinin M form. Ref. 10576015), Mouse Anti-Human CD3 (Clone OKT3; BD Biosciences, Ref: 566685; final concentration of 0.05 μg/ml) and CD28/CD49d Purified (Clone L293 L25 RUO GMP) (BD Biosciences. Ref. 347690; final concentration 5 μg/ml).
The cells where incubated at 37° C. for 3 days and finally a CFSE proliferation assay (CellTrace™ CFSE Cell Proliferation Kit, Invitrogen, Ref.) was performed to determine if high doses of the drug decrease the division index of the cells. The cells were stained with CFSE and the different cell surface antibodies. Then, cell acquisition was performed using a Navios cytometer (Beckman Coulter), acquiring an average of 200,000 cells. The analysis was made using FlowJo 10.7.1 (FlowJoLLC). N=4 mean of the results was performed.

[2] = tested on: PBMCs of COVID-19 convalescent donors; assay: Secretion of IFNγ in the presence of dexamethasone with peptivators for SARS-COV-2; assay type: cell-based, human; details: three SARS-CoV-2 peptides
Experimental: Then they were mixed with PepTivators for SARS-CoV2 (Miltenyi Biotec. PepTivator Prot_M, Ref. 130-126-702; PepTivator Prot_N, Ref. 130-126-698 & PepTivator Prot_S, Ref. 130-126-700. Final concentration of 0.6 nmol/ml) for 5 hours at 37° C.; then IFNγ production of T cells were measured as before using the Miltenyi Biotec IFNg Detection Kit, Ref: 130-054-202. In all cases there was a basal condition, without peptivators and the cells where previously incubated with mouse Anti-Human CD3 (Clone OKT3; BD Biosciences, Ref:
566685; final concentration of 2.8 μg/ml and CD28/CD49d Purified (Clone L293 L25 RUO GMP) (BD Biosciences. Ref. 347690; final concentration 5 μg/ml). Cell acquisition was performed using a Navios cytometer (Beckman Coulter), acquiring an average of 200,000 cells. The analysis was made using FlowJo 10.7.1 (FlowJoLLC). N=3, mean of the results was performed.

[3] = DEX 10^-7M, 72 hours (D3), listed as dexamethasone

SMILES: C[C@@H]1C[C@H]2[C@@H]3CCC4=CC(=O)C=C[C@]4(C)[C@@]3(F)[C@@H](O)C[C@]2(C)[C@@]1(O)C(=O)CO [DEX, dexamethasone]
- Reduction of proliferation within the CD45RA− memory T cells [1]: 0-5%
- Percentage of IFNg, CD45RA+ ([2]; DEX 10^-6M, 24 hours (D1)): 0.00%
- Percentage of IFNg, CD45RA+CD3+ ([2]; DEX 10^-6M, 24 hours (D1)): 0.00%
- Percentage of IFNg, CD45RA+CD3+CD4+ ([2]; DEX 10^-6M, 24 hours (D1)): 0.32%
- Percentage of IFNg, CD45RA+CD3+CD8+ ([2]; DEX 10^-6M, 24 hours (D1)): 0.00%
- Percentage of IFNg, CD45RA− ([2]; DEX 10^-6M, 24 hours (D1)): 2.0%
- Percentage of IFNg, CD45RA− CD3+ ([2]; DEX 10^-6M, 24 hours (D1)): 0.7%
- Percentage of IFNg, CD45RA− CD3+CD4+ ([2]; DEX 10^-6M, 24 hours (D1)): 1.1%
- Percentage of IFNg, CD45RA− CD3+CD8+ ([2]; DEX 10^-6M, 24 hours (D1)): 0.1%
- Percentage of IFNg, CD45RA+ ([2]; DEX 10^-6M, 72 hours (D3)): 0.61%
- Percentage of IFNg, CD45RA+CD3+ ([2]; DEX 10^-6M, 72 hours (D3)): 1.06%
- Percentage of IFNg, CD45RA+CD3+CD4+ ([2]; DEX 10^-6M, 72 hours (D3)): 1.43%
- Percentage of IFNg, CD45RA+CD3+CD8+ ([2]; DEX 10^-6M, 72 hours (D3)): 1.29%
- Percentage of IFNg, CD45RA− ([2]; DEX 10^-6M, 72 hours (D3)): 2.68%
- Percentage of IFNg, CD45RA− CD3+ ([2]; DEX 10^-6M, 72 hours (D3)): 3.27%
- Percentage of IFNg, CD45RA− CD3+CD4+ ([2]; DEX 10^-6M, 72 hours (D3)): 3.04%
- Percentage of IFNg, CD45RA− CD3+CD8+ ([2]; DEX 10^-6M, 72 hours (D3)): 4.50%
- Percentage of IFNg, CD45RA+ ([2]; DEX 10^-7M, 24 hours (D1)): 0.27%
- Percentage of IFNg, CD45RA+CD3+ ([2]; DEX 10^-7M, 24 hours (D1)): 0.40%
- Percentage of IFNg, CD45RA+CD3+CD4+ ([2]; DEX 10^-7M, 24 hours (D1)): 0.11%
- Percentage of IFNg, CD45RA+CD3+CD8+ ([2]; DEX 10^-7M, 24 hours (D1)): 1.77%
- Percentage of IFNg, CD45RA− ([2]; DEX 10^-7M, 24 hours (D1)): 5.9%
- Percentage of IFNg, CD45RA− CD3+ ([2]; DEX 10^-7M, 24 hours (D1)): 1.7%
- Percentage of IFNg, CD45RA− CD3+CD4+ ([2]; DEX 10^-7M, 24 hours (D1)): 2.4%
- Percentage of IFNg, CD45RA− CD3+CD8+ ([2]; DEX 10^-7M, 24 hours (D1)): 2.6%
- Percentage of IFNg, CD45RA+ ([2]; DEX 10^-7M, 72 hours (D3)): 2.08%
- Percentage of IFNg, CD45RA+CD3+ ([2]; DEX 10^-7M, 72 hours (D3)): 5.12%
- Percentage of IFNg, CD45RA+CD3+CD4+ ([2]; DEX 10^-7M, 72 hours (D3)): 3.29%
- Percentage of IFNg, CD45RA+CD3+CD8+ ([2]; DEX 10^-7M, 72 hours (D3)): 3.91%
- Percentage of IFNg, CD45RA− ([2]; DEX 10^-7M, 72 hours (D3)): 7.21%
- Percentage of IFNg, CD45RA− CD3+ ([2]; DEX 10^-7M, 72 hours (D3)): 8.03%
- Percentage of IFNg, CD45RA− CD3+CD4+ ([2]; DEX 10^-7M, 72 hours (D3)): 7.06%
- Percentage of IFNg, CD45RA− CD3+CD8+ ([2]; DEX 10^-7M, 72 hours (D3)): 8.67%
- Percentage of IFNg, CD45RA− [2, 3]: 2.08%
- Percentage of IFNg, CD45RA− CD3+ [2, 3]: 5.12%
- Percentage of IFNg, CD45RA− CD3+CD4+ [2, 3]: 3.29%
- Percentage of IFNg, CD45RA− CD3+CD8+ [2, 3]: 3.91%

Source: US20230372481A1 (priority 2020, published 2023)
